# What was measured:
# [1] = molecular target: T1, LkcE (Streptomyces rochei, UniProt G4V2H3); experiment: X-ray crystallography, […] Å, co-crystal; type: binding; conditions: active site, one of the two per site, no turnover
# T1 construct: recombinant from E. coli (pBG-102), His6-SUMO tag removed by HRV3C protease
# [2] = molecular target: T1, LkcE; experiment: X-ray crystallography, […] Å; mass spectrometry of released cofactor; type: binding; conditions: non-covalent; co-purified; selenomethionyl holo crystal
# [3] = molecular target: LkcE wild type (amide oxidase/macrocyclase of lankacidin biosynthesis, Streptomyces rochei) (Streptomyces rochei); experiment: SAXS; recombinant LkcE in solution; Rg 31.0 Å, Dmax 91 Å; compared with the homodimer's calculated mass and the LkcEWT crystal structure
# T1 sequence (G4V2H3 entry or part of it): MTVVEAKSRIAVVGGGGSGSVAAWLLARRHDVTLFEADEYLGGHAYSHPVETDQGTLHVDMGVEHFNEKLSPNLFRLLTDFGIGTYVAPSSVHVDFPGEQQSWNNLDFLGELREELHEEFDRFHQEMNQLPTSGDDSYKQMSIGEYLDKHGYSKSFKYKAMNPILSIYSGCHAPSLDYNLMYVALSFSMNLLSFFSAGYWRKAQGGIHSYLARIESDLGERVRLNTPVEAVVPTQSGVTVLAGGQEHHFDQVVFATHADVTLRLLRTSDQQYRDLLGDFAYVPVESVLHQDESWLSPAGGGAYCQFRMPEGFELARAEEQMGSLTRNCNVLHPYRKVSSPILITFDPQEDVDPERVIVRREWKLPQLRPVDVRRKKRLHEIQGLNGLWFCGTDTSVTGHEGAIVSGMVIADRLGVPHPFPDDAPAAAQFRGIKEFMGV
compound,measurement,setting,value
"C=CCNC(=O)[C@H](O)[C@@H](O)C(=O)NCC=C [compound 5, DATD]","X-ray crystallography, 2.80 Å, co-crystal",[1]; position overlaps EMAA,clear electron density attributable to EMAA and DATD
Cc1cc2nc3c(=O)[nH]c(=O)nc-3n(C[C@H](O)[C@H](O)[C@H](O)COP(=O)(O)OP(=O)(O)OC[C@H]3O[C@@H](n4cnc5c(N)ncnc54)[C@H](O)[C@@H]3O)c2cc1C [FAD],"X-ray crystallography, 3.15 Å; mass spectrometry of released cofactor",[2],the FAD cofactor is non-covalently bound
"LkcE wild type (amide oxidase/macrocyclase of lankacidin biosynthesis, Streptomyces rochei) (enzyme)",stoichiometry N,[3],2
"CCOC(=O)[C@H](C)C(C)=O [compound 4, EMAA]","X-ray crystallography, 2.80 Å, co-crystal",[1]; position overlaps DATD,clear electron density attributable to EMAA and DATD

# Source: PMC6162330, “Insights into a dual function amide oxidase/macrocyclase from lankacidin biosynthesis” (Nature Communications, 2018)
